#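 GI50 marks 50% less growth. TGI: concentration producing complete growth inhibition.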
# Assays:
# Experiment in all cases: inhibition of tumour cell growth, NCI panel, 384-well format
# HCC-2998 colon = tested on: HCC-2998 colon
# HOP-92 NSCLC = tested on: HOP-92 NSCLC
# MDA-MB-468 breast = tested on: MDA-MB-468 breast
# COLO 205 colon = tested on: COLO 205 colon
# BT-549 breast = tested on: BT-549 breast
# M14 melanoma = tested on: M14 melanoma
# HL-60(TB) leukemia = tested on: HL-60(TB) leukemia
# MOLT-4 leukemia = tested on: MOLT-4 leukemia
# SF-295 CNS = tested on: SF-295 CNS
# MDA-MB-435 melanoma = tested on: MDA-MB-435 melanoma
# NCI-H522 lung = tested on: NCI-H522 lung
# SNB-75 CNS = tested on: SNB-75 CNS
# SK-MEL-5 melanoma = tested on: SK-MEL-5 melanoma
# 786-0 renal = tested on: 786-0 renal
# MCF7 breast = tested on: MCF7 breast
# SF-268 CNS = tested on: SF-268 CNS
# RXF 393 renal = tested on: RXF 393 renal
# NCI-H460 NSCLC = tested on: NCI-H460 NSCLC
# LOX IMVI melanoma = tested on: LOX IMVI melanoma
# T-47D breast = tested on: T-47D breast
# NCI-H226 lung = tested on: NCI-H226 lung
# K-562 leukemia = tested on: K-562 leukemia
# UACC-62 melanoma = tested on: UACC-62 melanoma
# SK-MEL-28 melanoma = tested on: SK-MEL-28 melanoma
# SR leukemia = tested on: SR leukemia
# HS 578T breast = tested on: HS 578T breast
# KM12 colon = tested on: KM12 colon
# UO-31 renal = tested on: UO-31 renal
# NCI-H23 lung = tested on: NCI-H23 lung
# HCT-15 colon = tested on: HCT-15 colon
# SF-539 CNS = tested on: SF-539 CNS
# SK-OV-3 ovarian = tested on: SK-OV-3 ovarian
# PC-3 prostate = tested on: PC-3 prostate
# MALME-3M melanoma = tested on: MALME-3M melanoma
# TK-10 renal = tested on: TK-10 renal
# SW-620 colon = tested on: SW-620 colon
# OVCAR-4 ovarian = tested on: OVCAR-4 ovarian
# DU-145 prostate = tested on: DU-145 prostate
# UACC-257 melanoma = tested on: UACC-257 melanoma
# CCRF-CEM leukemia = tested on: CCRF-CEM leukemia
# SNB-19 CNS = tested on: SNB-19 CNS
# HT29 colon = tested on: HT29 colon
# U251 glioblastoma = tested on: U251 glioblastoma
# NCI/ADR-RES ovarian = tested on: NCI/ADR-RES ovarian
# IGROV1 ovarian = tested on: IGROV1 ovarian
# HOP-62 NSCLC = tested on: HOP-62 NSCLC
# NCI-H322M lung = tested on: NCI-H322M lung
# OVCAR-3 ovarian = tested on: OVCAR-3 ovarian
# OVCAR-5 ovarian = tested on: OVCAR-5 ovarian
# CAKI-1 renal = tested on: CAKI-1 renal
# OVCAR-8 ovarian = tested on: OVCAR-8 ovarian
# RPMI-8226 leukemia = tested on: RPMI-8226 leukemia
# A549 NSCLC = tested on: A549 NSCLC
# A498 renal = tested on: A498 renal
# SN12C renal = tested on: SN12C renal
# EKVX NSCLC = tested on: EKVX NSCLC
# ACHN renal = tested on: ACHN renal
# MDA-MB-231 breast = tested on: MDA-MB-231 breast
compound,measurement,setting,value
NCC(=O)Nc1ccc(-n2nc(C(F)(F)F)cc2-c2ccc3c(ccc4ccccc43)c2)cc1,GI50,HCC-2998 colon,1.06 µM
same,TGI,HCC-2998 colon,2.25 µM
same,GI50,HOP-92 NSCLC,1.12 µM
same,TGI,HOP-92 NSCLC,2.33 µM
same,GI50,MDA-MB-468 breast,1.53 µM
same,TGI,MDA-MB-468 breast,2.87 µM
same,GI50,COLO 205 colon,0.535 µM
same,TGI,COLO 205 colon,1.8 µM
same,GI50,BT-549 breast,1.33 µM
same,TGI,BT-549 breast,2.62 µM
same,GI50,M14 melanoma,1.27 µM
same,TGI,M14 melanoma,2.54 µM
same,GI50,HL-60(TB) leukemia,0.272 µM
same,TGI,HL-60(TB) leukemia,1.17 µM
same,GI50,MOLT-4 leukemia,0.0441 µM
same,TGI,MOLT-4 leukemia,0.148 µM
same,GI50,SF-295 CNS,0.766 µM
same,TGI,SF-295 CNS,2.04 µM
same,GI50,MDA-MB-435 melanoma,1.11 µM
same,TGI,MDA-MB-435 melanoma,2.33 µM
same,GI50,NCI-H522 lung,1.07 µM
same,TGI,NCI-H522 lung,2.27 µM
same,GI50,SNB-75 CNS,1.08 µM
same,TGI,SNB-75 CNS,2.29 µM
same,GI50,SK-MEL-5 melanoma,1.12 µM
same,TGI,SK-MEL-5 melanoma,2.33 µM
same,GI50,786-0 renal,1.02 µM
same,TGI,786-0 renal,2.2 µM
same,GI50,MCF7 breast,0.904 µM
same,TGI,MCF7 breast,2.12 µM
same,GI50,SF-268 CNS,1.05 µM
same,TGI,SF-268 CNS,2.24 µM
same,GI50,RXF 393 renal,1.27 µM
same,TGI,RXF 393 renal,2.53 µM
same,GI50,NCI-H460 NSCLC,0.296 µM
same,TGI,NCI-H460 NSCLC,1.44 µM
same,GI50,LOX IMVI melanoma,0.396 µM
same,TGI,LOX IMVI melanoma,1.47 µM
same,GI50,T-47D breast,1.54 µM
same,TGI,T-47D breast,2.88 µM
same,GI50,NCI-H226 lung,1.6 µM
same,TGI,NCI-H226 lung,2.96 µM
same,GI50,K-562 leukemia,0.218 µM
same,TGI,K-562 leukemia,1.52 µM
same,GI50,UACC-62 melanoma,1.23 µM
same,TGI,UACC-62 melanoma,2.48 µM
same,GI50,SK-MEL-28 melanoma,1.12 µM
same,TGI,SK-MEL-28 melanoma,2.32 µM
same,GI50,SR leukemia,0.0306 µM
same,TGI,SR leukemia,0.104 µM
same,GI50,HS 578T breast,1.76 µM
same,TGI,HS 578T breast,3.16 µM
same,GI50,KM12 colon,1.14 µM
same,TGI,KM12 colon,2.37 µM
same,GI50,UO-31 renal,1.39 µM
same,TGI,UO-31 renal,2.74 µM
same,GI50,NCI-H23 lung,1.76 µM
same,TGI,NCI-H23 lung,3.15 µM
same,GI50,HCT-15 colon,0.0821 µM
same,TGI,HCT-15 colon,1.75 µM
same,GI50,SF-539 CNS,1.16 µM
same,TGI,SF-539 CNS,2.4 µM
same,GI50,SK-OV-3 ovarian,1.57 µM
same,TGI,SK-OV-3 ovarian,2.92 µM
same,GI50,PC-3 prostate,1.19 µM
same,TGI,PC-3 prostate,2.43 µM
same,GI50,MALME-3M melanoma,1.16 µM
same,TGI,MALME-3M melanoma,2.39 µM
same,GI50,TK-10 renal,1.32 µM
same,TGI,TK-10 renal,2.61 µM
same,GI50,SW-620 colon,0.965 µM
same,TGI,SW-620 colon,2.16 µM
same,GI50,OVCAR-4 ovarian,1.62 µM
same,TGI,OVCAR-4 ovarian,2.98 µM
same,GI50,DU-145 prostate,1.31 µM
same,TGI,DU-145 prostate,2.61 µM
same,GI50,UACC-257 melanoma,1.25 µM
same,TGI,UACC-257 melanoma,2.51 µM
same,GI50,CCRF-CEM leukemia,0.218 µM
same,TGI,CCRF-CEM leukemia,1.72 µM
same,GI50,SNB-19 CNS,1.52 µM
same,TGI,SNB-19 CNS,2.86 µM
same,GI50,HT29 colon,1.09 µM
same,TGI,HT29 colon,2.29 µM
same,GI50,U251 glioblastoma,1.19 µM
same,TGI,U251 glioblastoma,2.46 µM
same,GI50,NCI/ADR-RES ovarian,1.07 µM
same,TGI,NCI/ADR-RES ovarian,2.25 µM
same,GI50,IGROV1 ovarian,1.09 µM
same,TGI,IGROV1 ovarian,2.3 µM
same,GI50,HOP-62 NSCLC,1.13 µM
same,TGI,HOP-62 NSCLC,2.36 µM
same,GI50,NCI-H322M lung,1.42 µM
same,TGI,NCI-H322M lung,2.74 µM
same,GI50,OVCAR-3 ovarian,1.57 µM
same,TGI,OVCAR-3 ovarian,2.92 µM
same,GI50,OVCAR-5 ovarian,1.66 µM
same,TGI,OVCAR-5 ovarian,3.04 µM
same,GI50,CAKI-1 renal,1.18 µM
same,TGI,CAKI-1 renal,2.43 µM
same,GI50,OVCAR-8 ovarian,1.13 µM
same,TGI,OVCAR-8 ovarian,2.36 µM
same,GI50,RPMI-8226 leukemia,0.213 µM
same,TGI,RPMI-8226 leukemia,0.686 µM
same,GI50,A549 NSCLC,1.04 µM
same,TGI,A549 NSCLC,2.23 µM
same,GI50,A498 renal,1.55 µM
same,TGI,A498 renal,2.9 µM
same,GI50,SN12C renal,1.42 µM
same,TGI,SN12C renal,2.74 µM
same,GI50,EKVX NSCLC,1.77 µM
same,TGI,EKVX NSCLC,3.17 µM
same,GI50,ACHN renal,1.18 µM
same,TGI,ACHN renal,2.43 µM
same,GI50,MDA-MB-231 breast,0.405 µM
same,TGI,MDA-MB-231 breast,2.01 µM
